Data set [1] in a line: Stability of PDI inhibitors in human plasma. The format is in vitro ADME. The note with it: 1 μM, room temperature. On the procedure:
(§1) The stability of PDI inhibitors was measured in the presence of PBS pH 7.4 with 1% DMSO. PDI inhibitors were added to plasma (in triplicate at 1 μM) on six separate plates and allowed to equilibrate at room temperature for 48 hours. At each time point (0, 2, 4, 8, 24, and 48 hours), one plate was removed and an aliquot was taken out from each well and analyzed by UPLC-MS.

The next data set deals with Thioredoxin reductase. Briefly: Insulin turbidimetric assay counter screen, thioredoxin reductase. The class given is biochemical. On the procedure:
(§2) PDI inhibitors were evaluated in an insulin turbidimetric assay to assess their ability to block the reductase activity of PDI. The assay measured the aggregation of insulin chains by monitoring absorbance at 650 nm as previously described in Jasuja, R. et al. Protein disulfide isomerase inhibitors constitute a new class of antithrombotic agents. J Clin Invest 122, 2104-2113 (2012) (hereinafter “Jasija”). Cleavage of disulfide bonds within insulin by PDI results in aggregation of insulin. When PDI is inhibited, there is a decrease in aggregation of insulin, and therefore a decrease in absorbance signal at 650 nm. Recombinant human PDI expressed and purified from E. coli., mixed with bovine insulin (Sigma), and added to assay plates. The reaction mixture for insulin reduction assays contained 100 mM potassium phosphate, pH 7.4; 0.75 mM DTT, 2 mM EDTA, 0.1 mM bovine insulin, and 0.8 μM purified human PDI in a total volume of 135 μl in a 96 well plate. The progress of the reaction was monitored for 30 min at 23° C. Indicated inhibitors or control buffer was added prior to the addition of enzyme at the concentrations indicated. PDI activity in the presence of compound was determined by the formula, PDI activity (%)={OD(compound+PDI+DTT)−OD(DTT)}/{OD(PDI+DTT)−OD(DTT)}×100 % enzyme inhibition={1−(ODmax(compound+enzyme)/ODmax(buffer control+enzyme)}
(§3) The insulin turbidimetric assay was used with alternative thiol isomerases to evaluate the specificity of inhibitors, as shown in Tables B and C. Other oxidoreductases used to evaluate the specificity of inhibitors include ERp5, thioredoxin (TR), and thioredoxin reductase (TRR).
Background: A counterscreen serves to expose hits that act by an unwanted route or on another target.

The next data set has as its target Thioredoxin (Homo sapiens (Human), UniProt P10599). Briefly: Insulin turbidimetric assay counter screen, thioredoxin. The class given is biochemical. The protocol:
as §2, §3

The nature of data set [2]: Stability of PDI inhibitors in mouse plasma. The format is in vitro ADME. The following applies: 1 μM, room temperature. The protocol:
as §1

The target in another data set is ERp57 (Homo sapiens (Human), UniProt P30101). Briefly: Insulin turbidimetric assay counter screen, ERp57. The format is biochemical. The note with it: Table B; read-out: Counter Screen: Selectivity against other thiol isomerases IC50 ERp57. The protocol:
as §2, §3

The next data set addresses ERp5 (Homo sapiens (Human), UniProt Q15084). Briefly: Insulin turbidimetric assay counter screen, ERp5. The format is biochemical. The protocol: as §2, §3
The subject of another data set is washed platelets. Nature of the data set: Platelet aggregation (SFLLRN-induced, washed platelets). The format is cell-based. The note with it: inhibition of platelet aggregation; compounds at 30 μM, 30 minutes at 37° C., SFLLRN-initiated. On the procedure: Platelet Rich Plasma (PRP) was prepared from whole blood obtained from individual donors and drawn into Acid Citrate Dextrose (ACD) at 15% of total volume. PGE-1 was added to a final concentration of 0.15 µM to maintain the resting state. PRP was spun at 1000 g×10 minutes and the supernatant was discarded. The platelet pellet was resuspended in Modified HEPES-Tyrodes buffer pH 7.3. The 1× washed platelets were incubated for 20 minutes at 37° C. until they were in a quiescent state. The above washing procedure was then repeated. The 2× washed platelets were allowed to rest for 20 minutes at 37° C. Platelets were then counted and the concentration of platelets in suspension was adjusted to 200,000 platelets/µL. The 2× washed platelets were treated with compounds at 30 µM, and were incubated for 30 minutes at 37° C. Following incubation, platelets were added to a cuvette and stirred at 37° C. in a Chrono-Log Platelet Aggregometer. In order to initiate aggregation, a concentration of SFLLRN, the thrombin receptor activating peptide, sufficient to elicit 60-70% light transmittance was added to the cuvette. Therefore, a range of 2-3 µM SFLLRN was used in order to accommodate small differences in sensitivity to SFLLRN between individual donors. Prior to reading, the aggregometer was scaled so that unstimulated, washed platelets are set to 0% light transmittance, and buffer alone with no platelets is set to 100% light transmittance. The light transmittance of each sample was recorded as a measure of aggregation. Data were recorded as a single point representing maximum aggregation in the presence of compound and were compared to samples exposed to vehicle (DMSO) alone. See Jasuja

For another data set, the target named is human PDI (Homo sapiens (Human), UniProt P07237). Briefly: Insulin turbidimetric assay of PDI reductase activity. The class given is biochemical. On the procedure:
as §2
IC50 values were calculated using non-linear regression analysis.

Where [3] appears, read: Table B, read-out: Counter Screen: Selectivity against other thiol isomerases IC50 Thioredoxin reductase.
[4] abbreviates: Table C, read-out: Specif. (ERp5, TR, TRR): TRR.
Setting [5] is: Table B, read-out: Counter Screen: Selectivity against other thiol isomerases IC50 Thioredoxin.
[6] abbreviates: Table C, read-out: Specif. (ERp5, TR, TRR): TR.
Where [7] appears, read: Table B, read-out: Counter Screen: Selectivity against other thiol isomerases IC50 ERp5.
The mark [8] stands for this setting: Table C, read-out: Specif. (ERp5, TR, TRR): ERp5.
Setting [9] is: Table A, average of two independent experiments, read-out: PDI_Inhibition_ IC50.
The mark [10] stands for this setting: Table B, read-out: PDI_ Inhibition_ IC50.
The mark [11] stands for this setting: insulin reductase assay, recombinant human PDI, read-out: PDI_Inhibition_ IC50.

This is an account of results in US10064853B2, “Compounds for use in methods for treating diseases or conditions mediated by protein disulfide isomerase” (Beth Israel Deaconess Medical Center, Inc., priority 2013, dated 2018).

Like-named read-outs stand apart in the source and are kept apart here. Some results are limits rather than exact numbers.

Chain of human PDI (P07237 18-508): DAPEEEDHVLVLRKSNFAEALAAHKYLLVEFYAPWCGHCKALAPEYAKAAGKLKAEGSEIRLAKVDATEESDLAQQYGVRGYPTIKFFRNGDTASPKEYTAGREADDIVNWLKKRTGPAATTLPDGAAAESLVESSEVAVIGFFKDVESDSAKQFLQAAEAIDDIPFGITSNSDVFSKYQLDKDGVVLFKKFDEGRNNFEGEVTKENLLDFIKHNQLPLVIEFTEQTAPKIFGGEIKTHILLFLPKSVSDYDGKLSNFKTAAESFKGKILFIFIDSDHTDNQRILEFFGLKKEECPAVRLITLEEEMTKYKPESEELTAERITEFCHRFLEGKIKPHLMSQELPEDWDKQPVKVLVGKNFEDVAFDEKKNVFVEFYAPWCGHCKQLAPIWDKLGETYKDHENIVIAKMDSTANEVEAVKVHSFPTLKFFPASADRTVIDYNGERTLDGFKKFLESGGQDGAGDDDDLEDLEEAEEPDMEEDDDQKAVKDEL
Chain of ERp5 (Q15084 20-440, species assumed): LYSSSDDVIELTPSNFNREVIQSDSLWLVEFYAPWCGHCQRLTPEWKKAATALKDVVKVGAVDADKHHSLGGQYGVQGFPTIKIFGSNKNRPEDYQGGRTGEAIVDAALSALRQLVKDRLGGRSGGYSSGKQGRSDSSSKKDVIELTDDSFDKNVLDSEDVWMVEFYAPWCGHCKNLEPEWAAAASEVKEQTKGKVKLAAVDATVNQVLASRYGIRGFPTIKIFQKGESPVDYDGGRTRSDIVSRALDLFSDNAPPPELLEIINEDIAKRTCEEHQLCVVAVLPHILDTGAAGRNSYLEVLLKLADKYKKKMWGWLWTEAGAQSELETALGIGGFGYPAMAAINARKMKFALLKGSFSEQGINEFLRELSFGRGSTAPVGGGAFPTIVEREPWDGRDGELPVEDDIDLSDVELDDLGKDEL
Chain of Thioredoxin (P10599 whole entry, species assumed): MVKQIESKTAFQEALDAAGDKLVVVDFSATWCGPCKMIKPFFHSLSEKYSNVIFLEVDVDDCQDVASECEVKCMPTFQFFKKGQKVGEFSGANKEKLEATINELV
Chain of ERp57 (P30101 25-505, species assumed): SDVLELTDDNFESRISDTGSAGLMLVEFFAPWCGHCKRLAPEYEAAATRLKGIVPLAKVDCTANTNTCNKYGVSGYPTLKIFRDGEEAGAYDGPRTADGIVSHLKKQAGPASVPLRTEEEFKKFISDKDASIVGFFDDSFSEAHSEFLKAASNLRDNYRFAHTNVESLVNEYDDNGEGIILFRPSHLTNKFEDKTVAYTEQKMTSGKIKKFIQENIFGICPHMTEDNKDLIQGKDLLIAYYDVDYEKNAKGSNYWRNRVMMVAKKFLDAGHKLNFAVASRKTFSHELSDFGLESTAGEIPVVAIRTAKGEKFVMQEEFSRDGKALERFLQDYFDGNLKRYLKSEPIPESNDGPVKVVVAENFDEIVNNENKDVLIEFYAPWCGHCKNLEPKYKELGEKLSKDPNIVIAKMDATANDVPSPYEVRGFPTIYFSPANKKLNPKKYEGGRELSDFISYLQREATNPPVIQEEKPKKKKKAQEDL

With `CCOC(=O)C1(CCOc2ccccc2)CCN(Cc2ccc(O)c(Cl)c2)CC1` [Compound 1, Ethyl 1-(3-chloro-4-hydroxybenzyl)-4-(2-phenoxyethyl)piperidine-4-carboxylate], the Plasma stability human in data set [1] turned out to be 100%. In addition, the IC50 on Thioredoxin reductase (setting [3]), at Thioredoxin reductase (setting [4]), at Thioredoxin (setting [5]), on Thioredoxin (setting [6]), on ERp57 and on ERp5 (setting [7]) was above 30 µM in each case. The IC50 on ERp5 (setting [8]) is above 30 µM; at human PDI (setting [9]), 0.25 µM; on human PDI (setting [10]), 0.25 µM; on human PDI (Table C, PDI, read-out: IC50) it was 0.3 to 0.6 µM; at human PDI (setting [11]), 0.25 µM. This compound had a Plasma stability mouse in data set [2] of 5.3%. Moreover, the “Platelet Aggregation” value in the data set with washed platelets was 25-50%.

For the compound `CCOC(=O)C1(CCOc2ccccc2)CCN(Cc2ccc(OC)c(Cl)c2)CC1` [Compound 4], the IC50 at Thioredoxin reductase (setting [3]), at Thioredoxin (setting [5]), on ERp57, at human PDI (setting [9]), on human PDI (setting [10]) and on human PDI (setting [11]) was above 30 µM each time.

With `C=CCOc1ccc(CN2CCC(CCOc3ccccc3)(C(=O)OCC)CC2)cc1Cl` [Compound 5], the IC50 on human PDI (setting [9]) and at human PDI (setting [11]) was above 30 µM in each case.

Take `CCOC(=O)C1(CCOc2ccccc2)CCN(Cc2ccc(OC)cc2)CC1` [Compound 6]: the IC50 on human PDI (setting [9]) and on human PDI (setting [11]) was above 30 µM throughout.

Turning to `CCOC(=O)C1(CCOc2ccccc2)CCN(Cc2ccc(O)cc2)CC1` [Compound 7], the IC50 was above 30 µM at Thioredoxin reductase (setting [3]), above 30 µM at Thioredoxin (setting [5]), above 30 µM on ERp57 and 15 µM at human PDI (setting [10]).

Take `CCOC(=O)C1(CCOc2ccccc2)CCN(Cc2ccc3[nH]c(=O)oc3c2)CC1` [Compound 8]: the IC50 on human PDI (setting [9]) and at human PDI (setting [11]) was above 30 µM in each case.

In data set [1], `CCOC(=O)C1(CCOc2ccccc2)CCN(C(=O)c2ccc(O)c(Cl)c2)CC1` [Compound 9] gave a Plasma stability human of 100%. The IC50 at Thioredoxin reductase (setting [3]), on Thioredoxin reductase (setting [4]), on Thioredoxin (setting [5]), at Thioredoxin (setting [6]), at ERp57 and on ERp5 (setting [8]) was above 30 µM each time. The IC50 at human PDI (setting [9]) turned out to be 2.25 µM; at human PDI (setting [10]) it was 2.25 µM; on human PDI (Table C, PDI, read-out: IC50), 2.25 µM; at human PDI (setting [11]), 2.25 µM. In data set [2], this compound gave a Plasma stability mouse of 100%. In the data set on washed platelets, the “Platelet Aggregation” value is given as 100%.

In data set [1], `CC(C)OC(=O)C1(CCOc2ccccc2)CCN(Cc2ccc(O)c(Cl)c2)CC1` [Compound 13] registered a Plasma stability human of 97.9%. The IC50 on Thioredoxin reductase (setting [3]), on Thioredoxin reductase (setting [4]), at Thioredoxin (setting [5]), at Thioredoxin (setting [6]), on ERp57 and at ERp5 (setting [7]) was above 30 µM each time. Further, the IC50 was above 30 µM at ERp5 (setting [8]); 0.85 µM on human PDI (setting [9]); 0.85 µM at human PDI (setting [10]); 0.85 µM on human PDI (Table C, PDI, read-out: IC50); 0.85 µM at human PDI (setting [11]). The same compound displayed a Plasma stability mouse in data set [2] of 75.3%. In the data set on washed platelets, the “Platelet Aggregation” value is on record as 97%.

In turn, `CC(C)(C)OC(=O)C1(CCOc2ccccc2)CCN(Cc2ccc(O)c(Cl)c2)CC1` [Compound 14] returned a Plasma stability human in data set [1] of 98.7%. In addition, the IC50 at Thioredoxin reductase (setting [3]), on Thioredoxin reductase (setting [4]), on Thioredoxin (setting [5]), at Thioredoxin (setting [6]), at ERp57 and on ERp5 (setting [7]) was above 30 µM in each case. The IC50 at ERp5 (setting [8]) is above 30 µM; on human PDI (setting [9]), 0.65 µM; at human PDI (setting [10]), 0.65 µM; on human PDI (Table C, PDI, read-out: IC50) it was 0.65 µM; at human PDI (setting [11]), 0.65 µM. The same compound displayed a Plasma stability mouse in data set [2] of 95.6%. Further, in the data set on washed platelets, the “Platelet Aggregation” value was 100%.

Take `CCNC(=O)C1(CCOc2ccccc2)CCN(Cc2ccc(O)c(Cl)c2)CC1` [Compound 15]: the IC50 on human PDI (setting [9]) and on human PDI (setting [11]) was above 30 µM throughout.

On to `CCN(C)C(=O)C1(CCOc2ccccc2)CCN(Cc2ccc(O)c(Cl)c2)CC1` [Compound 16], for which the IC50 was above 30 µM at Thioredoxin reductase (setting [3]); above 30 µM at Thioredoxin (setting [5]); above 30 µM at ERp57; 3 µM at human PDI (setting [9]); 3 µM on human PDI (setting [10]); 3 µM at human PDI (setting [11]).

For the compound `O=C(NC1CCCC1)C1(CCOc2ccccc2)CCN(Cc2ccc(O)c(Cl)c2)CC1` [Compound 17], the IC50 at Thioredoxin reductase (setting [3]) is above 30 µM; on Thioredoxin (setting [5]), above 30 µM; at ERp57, above 30 µM; at human PDI (setting [9]) it was 4 µM; at human PDI (setting [10]) it was 4 µM; at human PDI (setting [11]) it was 4 µM.

As for `O=C(N1CCCC1)C1(CCOc2ccccc2)CCN(Cc2ccc(O)c(Cl)c2)CC1` [Compound 18], the IC50 at human PDI (setting [9]) and on human PDI (setting [11]) was above 30 µM each time.

`O=C(Nc1ccccc1)C1(CCOc2ccccc2)CCN(Cc2ccc(O)c(Cl)c2)CC1` [Compound 19]: the IC50 on Thioredoxin reductase (setting [3]) is above 30 µM; at Thioredoxin (setting [5]), above 30 µM; at ERp57 it was above 30 µM; at human PDI (setting [9]), 22.5 µM; at human PDI (setting [10]) it was 22.5 µM; on human PDI (setting [11]) it was 22.5 µM.
